Patent publication US10034915B2, “Small heat shock proteins and active fragments thereof as a therapy for inflammation and ischemia” (The Board of Trustees of the Leland Stanford Junior …, priority 2011, dated 2018)
“Also recorded” adds a separate entry of the source.

Key:
[1] = tested on: EAE mice; test: EAE in 129Sv WT mice immunized with MOG35-55/CFA, clinical scoring; assay type: in vivo, mouse; conditions: for AREA UNDER THE CURVE (amount higher than HSPB5 normalized to PBS): average EAE scores, peptide every other day from peak of disease, 129Sv WT mice, n=5 per group; for therapeutic efficacy of peptide in EAE (clinical scores): peptide every other day from peak of disease (10 μg, or 1 μg equimolar to 10 μg protein); for clinical paralysis / EAE clinical scores: 10 μg sHSP protein IP every other day starting at the peak of disease; for clinical paralysis / EAE clinical scores / EAE clinical scores over the course of the whole experiment (area under the curve): vs PBS; for EAE clinical scores over the course of the whole experiment (area under the curve): 10 μg sHSP protein IP every other day from peak of disease
Experimental: To investigate if the therapeutic efficacy of HSPB5 is a common feature of the whole family of small heat shock proteins, we expressed recombinant HSPB1, HSPB4, and HSPB5. We then treated EAE mice every other day starting at the peak of disease, when clinical paralysis is apparent, with an intraperitoneal (IP) administration of 10 μg of either HSPB1, HSPB4, HSPB5, or PBS as the vehicle control. […] Treating mice in vivo with HSPB1, HSPB4, or HSPB5 led to a reduction in the production of pro-inflammatory cytokines by MOG stimulated splenocytes taken from MOG immunized mice (FIG. 1c). Improvement of the clinical score was dependent on continued dosing of the sHSP. After dosing was stopped, symptoms returned, and paralysis worsened after 96 hours.
Therapeutic Peptides from HSPB5 in EAE. […] We made a series of overlapping, 15-mer peptide fragments of HSPB5 and treated mice at the peak of disease with 10 μg of each peptide every other day, using HSPB5 as a positive control and PBS as a negative control.
EAE induction and scoring. Mice were immunized subcutaneously with 100 μL of myelin oligodendrocyte glycoprotein (MOG) peptide 35-55 (2 mg/mL) and Complete Freund's adjuvant (CFA) (4 mg/mL) on Day 0. […] Mice were randomized at the peak of disease into the treatment groups where they received 10 ug/200 μL of sHSP, 1 μg/200 uL of sHSP peptide, or 200 μL of PBS (vehicle) every other day. Mice were scored every day on a clinical scoring system: 0, healthy mouse; 1, limp tail; 2, weak hindlimbs; 3, complete hindlimb paralysis; 4, weak forelimbs and paralyzed hindlimbs; 5, dead.

[2] = tested on: pro-inflammatory cytokines of MOG stimulated splenocytes; test: Peripheral immune cell activation: cytokine production by MOG stimulated splenocytes of treated MOG immunized mice (ELISA); design: species or system mouse; conditions: mice treated in vivo; splenocytes from MOG immunized mice
Experimental: Peripheral immune cell activation and cytokine analysis. Spleens and lymph nodes were isolated from mice 9 days after immunization with MOG35-55 and CFA. Spleens were mechanically disrupted to isolate single cell splencytes suspension. Cells were cultured in flat bottomed, 96-well plates in media (RPMI 1640 supplemented with […] L-glutamine, 1 mM sodium pyruvate, 0.1 mM non-essential amino acids, 100 U/mL penicillin, 0.1 mg/mL streptomycin, 0.5 uM 2-mercaptoethanol, and 10% fetal calf serum). Cells were stimulated with MOG35-55 (5 ug/mL, 10 ug/mL, and 20 ug/mL). For all activation assays, splenocytes were pooled from three mice per group and triplicate wells were plated. Supernatants of cells were collected at the time of peak production for each cytokine (48 hrs: IL-2, IL-12p40, IL-6; 72 hrs: TNFα and IFNγ; 96 hrs: IL-17; 120 hrs: IL-10). Cytokines were measured in the supernatants using anti-mouse OPTEIA ELISA kits (BD Pharmingen for IFNγ, IL-10, IL-2, IL-6, and IL-12p40; R&D Systems for IL-17 and TNFα).

[3] = tested on: mice with EAE; test: EAE in C57BL/6J mice (MOG35-55/CFA, pertussis toxin), neurological impairment scoring; assay type: in vivo, mouse; conditions: intraperitoneal 10-50 μg every other day starting at the peak of disease
Experimental: It was tested if the chaperone function of residues 73-92 of HspB5 were capable of reducing the symptoms of experimental allergic encephalomyelist (EAE), by inducing EAE in 9-week old female C57BL/6J by immunized subcutaneously with an emulsion containing 200 μg myelin oligodendrocyte glycoprotein 35-55 (MOG35-55; […] (SEQ ID NO:24)) in saline and an equal volume of complete Freund's adjuvant. Intraperitoneal injection of pertussis toxin at 0 and 48 h post-immunization results in paralysis beginning at day 12.

[4] = tested on: partially denatured proteins; conditions: in vitro, literature; cited from earlier work

HGFISREFHRKYRIP (listed as Homo sapiens) [HSPB5 peptide 111-125]
AREA UNDER THE CURVE (amount higher than HSPB5 normalized to PBS) [1]: 0.33

DKFVIFLDVKHFSPEDLTVK [HSPB4 73-92]
therapeutic efficacy of peptide in EAE (clinical scores) [1]: therapeutic in EAE | therapeutic efficacy of peptide in EAE (clinical scores) ([1]; listed as HSPB4 73-93): as therapeutic as full length proteins | production of pro-inflammatory cytokines by MOG stimulated splenocytes [2]: decrease peripheral immune activation

HSPB7: recombinant human small heat shock protein
clinical paralysis / EAE clinical scores [1]: ameliorated EAE

EKDRFSVNLDVKHFS (listed as Homo sapiens) [HSPB5 peptide 71-85]
AREA UNDER THE CURVE (amount higher than HSPB5 normalized to PBS) [1]: 0.06 | therapeutic efficacy of peptide in EAE (clinical scores) [1]: marked therapeutic efficacy

ITREEKPAVTAAPKK (listed as Homo sapiens) [HSPB5 peptide 161-175]
AREA UNDER THE CURVE (amount higher than HSPB5 normalized to PBS) [1]: 0.08 | therapeutic efficacy of peptide in EAE (clinical scores) [1]: therapeutic

DRWRVSLDVNHFAPDELTVK [HSPB1 73-92]
therapeutic efficacy of peptide in EAE (clinical scores) [1]: therapeutic in EAE | therapeutic efficacy of peptide in EAE (clinical scores) ([1]; listed as HSPB1 73-93): as therapeutic as full length proteins | production of pro-inflammatory cytokines by MOG stimulated splenocytes [2]: decrease peripheral immune activation

αA-crystallin [HSPB4]
EAE clinical scores over the course of the whole experiment (area under the curve) [1]: significantly improved | clinical paralysis / EAE clinical scores [1]: significantly ameliorated clinical paralysis; also recorded: therapeutic | clinical paralysis / clinical scores of mice with EAE [3]: significant reduction of clinical paralysis | production of pro-inflammatory cytokines by MOG stimulated splenocytes [2]: reduction

LTITSSLSSDGVLTV (listed as Homo sapiens) [HSPB5 peptide 131-145]
AREA UNDER THE CURVE (amount higher than HSPB5 normalized to PBS) [1]: 0.08 | therapeutic efficacy of peptide in EAE (clinical scores) [1]: therapeutic

SRLFDQFFGEHLLES (listed as Homo sapiens) [HSPB5 peptide 21-35]
AREA UNDER THE CURVE (amount higher than HSPB5 normalized to PBS) [1]: 0.28

STSLSPFYLRPPSFL (listed as Homo sapiens) [HSPB5 peptide 41-55]
AREA UNDER THE CURVE (amount higher than HSPB5 normalized to PBS) [1]: 0.28

RRPFFPFHSPSRLFD (listed as Homo sapiens) [HSPB5 peptide 11-25]
AREA UNDER THE CURVE (amount higher than HSPB5 normalized to PBS) [1]: −0.11 | therapeutic efficacy of peptide in EAE (clinical scores) [1]: therapeutic

HSP27 [HSPB1]
EAE clinical scores over the course of the whole experiment (area under the curve) [1]: significantly improved | clinical paralysis / EAE clinical scores [1]: significantly ameliorated clinical paralysis; also recorded: therapeutic | clinical paralysis / clinical scores of mice with EAE [3]: significant reduction of clinical paralysis | production of pro-inflammatory cytokines by MOG stimulated splenocytes [2]: reduction

HLLESDLFPTSTSLS (listed as Homo sapiens) [HSPB5 peptide 31-45]
AREA UNDER THE CURVE (amount higher than HSPB5 normalized to PBS) [1]: 0.33

PPSFLRAPSWFDTGL (listed as Homo sapiens) [HSPB5 peptide 51-65]
AREA UNDER THE CURVE (amount higher than HSPB5 normalized to PBS) [1]: 0.10

QVSGPERTIPITREE (listed as Homo sapiens) [HSPB5 peptide 151-165]
AREA UNDER THE CURVE (amount higher than HSPB5 normalized to PBS) [1]: 0.29

B1: Hsp22 (protein, UniProt O14558 1-160, looked up)
Heat shock protein beta-6: MEIPVPVQPSWLRRASAPLPGLSAPGRLFDQRFGEGLLEAELAALCPTTLAPYYLRAPSVALPVAQVPTDPGHFSVLLDVKHFSPEEIAVKVVGEHVEVHARHEERPDEHGFVAREFHRRYRLPPGVDPAAVTSALSPEGVLSIQAAPASAQAPPPAAAK
notes: recombinant human small heat shock protein
clinical paralysis / EAE clinical scores [1]: ameliorated EAE

B2: Arg120Gly: naturally occurring mutated HSPB5, arginine to glycine at amino acid position 120 (protein, UniProt P02511 1-175, looked up, variant R120G)
Alpha-crystallin B chain: MDIAIHHPWIRRPFFPFHSPSRLFDQFFGEHLLESDLFPTSTSLSPFYLRPPSFLRAPSWFDTGLSEMRLEKDRFSVNLDVKHFSPEELKVKVLGDVIEVHGKHEERQDEHGFISREFHGKYRIPADVDPLTITSSLSSDGVLTVNGPRKQVSGPERTIPITREEKPAVTAAPKK
molecular chaperone activity [4]: partial loss of molecular chaperone activity | clinical paralysis / EAE clinical scores [1]: did improve clinical scores; also recorded: ameliorated EAE just as well as HSPB5 | production of pro-inflammatory cytokines by MOG stimulated splenocytes [2]: reduction; also recorded: suppressed

B3: Hsp20 (protein, UniProt Q9UJY1 1-196, looked up)
Heat shock protein beta-8: MADGQMPFSCHYPSRLRRDPFRDSPLSSRLLDDGFGMDPFPDDLTASWPDWALPRLSSAWPGTLRSGMVPRGPTATARFGVPAEGRTPPPFPGEPWKVCVNVHSFKPEELMVKTKDGYVEVSGKHEEKQQEGGIVSKNFTKKIQLPAEVDPVTVFASLSPEGLLIIEAPQVPPYSTFGESSFNNELPQDSQEVTCT
notes: as for B1
clinical paralysis / EAE clinical scores [1]: ameliorated EAE

B4: HSPB9: recombinant human small heat shock protein (protein, UniProt Q9BQS6 1-159, looked up)
Heat shock protein beta-9: MQRVGNTFSNESRVASRCPSVGLAERNRVATMPVRLLRDSPAAQEDNDHARDGFQMKLDAHGFAPEELVVQVDGQWLMVTGQQQLDVRDPERVSYRMSQKVHRKMLPSNLSPTAMTCCLTPSGQLWVRGQCVALALPEAQTGPSPRLGSLGSKASNLTR
clinical paralysis / EAE clinical scores [1]: ameliorated EAE

B5: HSPB3: recombinant human small heat shock protein (protein, UniProt Q12988 1-150, looked up)
Heat shock protein beta-3: MAKIILRHLIEIPVRYQEEFEARGLEDCRLDHALYALPGPTIVDLRKTRAAQSPPVDSAAETPPREGKSHFQILLDVVQFLPEDIIIQTFEGWLLIKAQHGTRMDEHGFISRSFTRQYKLPDGVEIKDLSAVLCHDGILVVEVKDPVGTK
clinical paralysis / EAE clinical scores [1]: ameliorated EAE

B6: myotonic dystrophy protein kinase binding protein, MKBP (protein, UniProt Q16082 1-182, looked up)
Heat shock protein beta-2: MSGRSVPHAHPATAEYEFANPSRLGEQRFGEGLLPEEILTPTLYHGYYVRPRAAPAGEGSRAGASELRLSEGKFQAFLDVSHFTPDEVTVRTVDNLLEVSARHPQRLDRHGFVSREFCRTYVLPADVDPWRVRAALSHDGILNLEAPRGGRHLDTEVNEVYISLLPAPPDPEEEEEAAIVEP
notes: as for B1
clinical paralysis / EAE clinical scores [1]: ameliorated EAE
